Data taken from patent publication US6552022B1, “Benzamide derivatives and their use as ApoB-100 secretion inhibitors” (SmithKline Beecham Corporation, priority 1998, dated 2003).

Point of comparison: `N#Cc1cccc(S(=O)(=O)N2CCN(c3ccc(NC(=O)c4ccccc4-c4ccc(C(F)(F)F)cc4)cc3)CC2)c1` [Example 82, 4′-Trifluoromethyl-biphenyl-2-carboxylic Acid [4-[4-(3-cyano-benzenesulfonyl)-piperazin-1-yl]-phenyl]-amide], melting point 223 °C. Against it:
- Cc1ccc(-c2ccc(C(F)(F)F)cc2)c(C(=O)Nc2ccc(N3CCN(Cc4cccc(C#N)c4)CC3)cc2)c1 — lower, 120 to 124 °C
- COC(=O)c1cccc(CN2CCN(c3ccc(NC(=O)c4ccccc4-c4ccc(C(F)(F)F)cc4)cc3)CC2)c1 [Example 55, 4′-Trifluoromethyl-biphenyl-2-carboxylic acid [4-[4-(3-carbomethoxy-benzyl)-piperazin-1-yl]-phenyl]-amide] — lower, 190 to 192 °C
- COc1cccc(C(=O)Nc2ccc(N3CCN(Cc4cccc(C#N)c4)CC3)cc2)c1OCCCc1ccccc1 [Example 33, N-[4-[4-(3-Cyano-benzyl)-piperazin-1-yl]-phenyl]-3-methoxy-2-(3-phenyl-propoxy)-benzamide] — lower, 134 to 136 °C
- N#Cc1cccc(C(=O)N2CCN(c3ccc(NC(=O)c4ccccc4-c4ccc(C(F)(F)F)cc4)cc3)CC2)c1 [Example 80, 4′-Trifluoromethyl-biphenyl-2-carboxylic Acid [4-[4-(3-cyano-benzoyl)-piperazin-1-yl]-phenyl]-amide] — lower, 178.5 to 180 °C
- CC(C)c1ccc(-c2ccccc2C(=O)Nc2ccc(N3CCN(Cc4cccc(C#N)c4)CC3)cc2)cc1 — lower, 133 to 135 °C
- CCOCCN1CCN(c2ccc(NC(=O)c3ccccc3-c3ccc(C(F)(F)F)cc3)cc2)CC1 [Example 43, 4′-Trifluoromethyl-biphenyl-2-carboxylic acid [4-(4-(2-ethoxy-ethyl)-piperazin-1-yl]-phenyl]-amide] — lower, 176 to 178 °C
- O=C(Nc1ccc(N2CCN(CCCO)CC2)cc1)c1ccccc1-c1ccc(C(F)(F)F)cc1 [Example 44, 4′-Trifluoromethyl-biphenyl-2-carboxylic acid [4-(4-(3-hydroxy-propyl)-piperazin-1-yl]-phenyl]-amide] — lower, 208 to 210 °C
- O=C(Nc1ccc(N2CCN(Cc3ccncc3)CC2)cc1)c1ccccc1-c1ccc(C(F)(F)F)cc1 — lower, 194 to 196 °C
- O=C(Nc1ccc(N2CCN(Cc3cc[nH]n3)CC2)cc1)c1ccccc1-c1ccc(C(F)(F)F)cc1 [Example 71, 4′-Trifluoromethyl-biphenyl-2-carboxylic acid {4-[4-(1H-pyrazole-3-ylmethyl)-piperazine-1-yl]-phenyl}-amide] — lower, 194 to 196 °C
- CC(C)c1ccc(-c2cc(Cl)ccc2C(=O)Nc2ccc(N3CCN(Cc4cccc(C#N)c4)CC3)cc2)cc1 [Example 7, 5-Chloro-4′-isopropyl-biphenyl-2-carboxylic acid [4-[4-(3-cyano-benzyl)-piperazin-1-yl]-phenyl]-amide] — lower, 188 to 190 °C
- N#Cc1cccc(CN2CCN(c3ccc(NC(=O)c4ccc(Cl)cc4-c4ccc(C(F)(F)F)cc4)cc3)CC2)c1 [Example 10, 5-Chloro-4′-trifluoromethyl-biphenyl-2-carboxylic acid [4-[4-(3-cyano-benzyl)-piperazin-1-yl]-phenyl]-amide] — lower, 164 to 165 °C
- N#Cc1cccc(CN2CCN(c3ccc(NC(=O)c4ccccc4-n4cccc4)cc3)CC2)c1 [Example 85, N-{4-[4-(3-Cyano-benzyl)-piperazin-1-yl]-phenyl}-2-pyrrol-1-yl-benzamide] — lower, 174 °C
- COc1cccc(C(=O)Nc2ccc(N3CCN(Cc4cccc(C#N)c4)CC3)cc2)c1OCc1ccc(F)cc1 [Example 29, N-[4-[4-(3-Cyano-benzyl)-piperazin-1-yl]-phenyl]-2-(4-fluoro-benzyloxy)-3-methoxy-benzamide] — lower, 118 to 120 °C
- COc1cccc(C(=O)Nc2ccc(N3CCN(Cc4ccc[nH]4)CC3)cc2)c1-c1ccc(C(C)C)cc1 [Example 68, 4′-Isopropyl-6-methoxy-biphenyl-2-carboxylic acid [4-(4-(1H-pyrrol-2-ylmethyl)-piperazin-1-yl)-phenyl]-amide] — lower, 195 to 197 °C
- COc1cccc(CN2CCN(c3ccc(NC(=O)c4ccccc4-c4ccc(C(F)(F)F)cc4)cc3)CC2)c1 (hydrate or solvate) — lower, 168 to 170 °C
- Cc1ccc(C(=O)Nc2ccc(N3CCN(Cc4cccc(C#N)c4)CC3)cc2)c(-c2ccc(C(F)(F)F)cc2)c1 [Example 9, 5-Methyl-4′-trifluoromethyl-biphenyl-2-carboxylic acid [4-[4-(3-cyano-benzyl)-piperazin-1-yl]-phenyl]-amide] — lower, 166 to 168 °C
- COc1cccc(C(=O)Nc2ccc(N3CCN(Cc4cccc(C#N)c4)CC3)cc2)c1OCc1ccc(C(F)(F)F)cc1 [Example 28, N-[4-[4-(3-Cyano-benzyl)-piperazin-1-yl]-phenyl]-3-methoxy-2-(4-trifluoromethyl-benzyloxy)-benzamide] — lower, 118 to 119.5 °C
- Cc1ccc(-c2ccccc2C(=O)Nc2ccc(N3CCN(Cc4cccc(C#N)c4)CC3)cc2)c(C)c1 — lower, 72 to 76 °C
- COc1cccc(C(=O)Nc2ccc(N3CCN(Cc4cccc(C#N)c4)CC3)cc2)c1OCCC1CCCCC1 [Example 31, N-[4-[4-(3-Cyano-benzyl)-piperazin-1-yl]-phenyl]-2-(2-cyclohexyl-ethoxy)-3-methoxy-benzamide] — lower, 102 to 104 °C
- COc1cccc(C(=O)Nc2ccc(N3CCN(Cc4cccc(C#N)c4)CC3)cc2)c1OCCc1ccccc1 [Example 30, N-[4-[4-(3-Cyano-benzyl)-piperazin-1-yl]-phenyl]-3-methoxy-2-phenethyloxy-benzamide] — lower, 140 to 142 °C
- COc1ccc(-c2ccccc2C(=O)Nc2ccc(N3CCN(Cc4cccc(C#N)c4)CC3)cc2)cc1 — lower, 124 to 128 °C
- O=C(Nc1ccc(N2CCN(Cc3ccco3)CC2)cc1)c1ccccc1-c1ccc(C(F)(F)F)cc1 [Example 67, 4′-Trifluoromethyl-biphenyl-2-carboxylic acid [4-(4-furan-2-ylmethyl-piperazin-1-yl)-phenyl]-amide] — lower, 173 to 175 °C
- CC(=O)N1CCN(c2ccc(NC(=O)c3ccccc3-c3ccc(C(F)(F)F)cc3)cc2)CC1 [Example 81, 4′-Trifluoromethyl-biphenyl-2-carboxylic Acid [4-(4-acetyl-piperazin-1-yl)-phenyl]-amide] — lower, 175 to 176.5 °C
- N#Cc1cccc(CN2CCN(c3ccc(NC(=O)c4ccccc4-c4ccc(F)cc4)cc3)CC2)c1 [Example 23, 4′-Fluoro-biphenyl-2-carboxylic acid [4-[4-(3-cyano-benzyl)-piperazin-1-yl]-phenyl]-amide] — lower, 200 to 202 °C
- N#Cc1cccc(CN2CCN(c3ccc(NC(=O)c4ccccc4Oc4ccccc4)cc3)CC2)c1 (hydrate or solvate) [Example 14, N-[4-[4-(3-Cyano-benzyl)-piperazin-1-yl]-phenyl]-2-phenoxy-benzamide] — lower, 133 to 134 °C
- N#Cc1cccc(CN2CCN(c3ccc(NC(=O)c4ccccc4-c4ccccn4)cc3)CC2)c1 [Example 86, N-{4-[4-(3-Cyano-benzyl)-piperazin-1-yl]-phenyl}-2-pyridin-2-yl-benzamide] — lower, 169 to 171 °C
